# In patent US20040253207A1, “Methods and compositions for prostate epithelial cell differentiation” (Barnes-Jewish Hospital, priority 2002, published 2004):
# *: point of attachment. Decanoyl = CCCCCCCCCC(=O)*; CH2Cl = ClC*
# What was measured:
# Format in all cases: cell-based, human
# [1] = system: proprotein convertases (PCs) in LNCaP, PC3 and DU145 cells; assay: Proprotein convertase activity assay (cleavage of fluorogenic substrate boc-RVRR-amc); conditions: 100 μM CMK for 24 hours
# Procedure: For determination of cellular PC activity, 30,000 cells were seeded in 48-well plates for 24 hours. The next day, growth medium and CMK were added until a final concentration of 100 μM was reached. After a 24-hour incubation, media were replaced and cells were washed with PBS. Additional 48-well plates were prepared in the same manner for the determination of cell number which was used for normalization. 150 μl of assay medium which consists of RPMI 1640 with 0.25% Triton X-100 for permeabilization and boc-RVRR-amc (100 μM) as a fluorogenic substrate were added to each well. Fluorescence was measured at 360 nm excitation and 460 nm emission wavelengths after 4 h of substrate addition. The data were normalized to cell number. Human recombinant furin (Sigma, St. Louis, Mo.) was used for positive control.
# PC activity in prostate cancer cells and inhibition of PC activity by CMK was next examined. LNCaP, PC3 and DU 145 cells were incubated in the presence or absence of 100 μM CMK for 24 hours. Thereafter, 100 μM fluorogenic substrate, boc-RVRR-amc, was added and cells were incubated for an additional four hours. PC activity was assayed by measuring the cleavage of the fluorogenic substrate.
# [2] = system: PDF processing in LNCaP cells; assay: PC-dependent PDF processing in LNCaP cells, immunoblot for pro-PDF and mature PDF; conditions: various concentrations of CMK, 24 hours
# Procedure: (§1) Cells (approximately 1×10^6 cells) were seeded in 100 mm cell culture dishes and cultured in RPMI 1640 supplemented with 10% fetal bovine serum at 5% CO2. Subconfluent cells were washed with phosphate buffered saline (PBS), lysed in lysis buffer (Cell Signaling Technology, Beverly, Mass.) and used for cell lysate. For the detection of PDF in conditioned media, subconfluent cells were serum-starved for 24 h. The serum free media were collected and precipitated with 10% trichloroacetic acid. After centrifugation, pellets were dissolved in the buffer which consisted of 8 M urea, 50 mM Tris (pH 8.0) and 0.1% NP-40. Samples were mixed in 5× Laemmli sample buffer with 2% beta-mercaptoethanol, subjected to electrophoresis on a 15% SDS-polyacrylamide gel, and transferred to PVDF membranes. Membranes were blocked with PBS containing 0.1% Tween 20 and 5% non-fat dry milk for 1 h at room temperature and incubated with the appropriate primary antibodies and antisera (1:500-2000) overnight at 4° C. After the membranes were washed three times with PBS containing 0.1% Tween 20, the membranes were incubated with appropriate horse-radish peroxidase-conjugate secondary antibodies (1:2000) for 1 h at 4° C. The protein bands were visualized by chemiluminescence using SuperSignal West Pico ECL kit (PIERCE, Rockford, Ill.). This protocol was used for the detection of PDF, cytokeratin and PSA.
# PC-dependent PDF processing in LNCaP cells was also examined in the presence of CMK by immunoblotting for PDF. Cells were cultured and serum-starved with and without various concentrations of CMK for 24 hours. Cells and supernatants were electrophoresed on 15% SDS-PAGE. Immunoblots were performed with anti-pro-PDF antibody (˜40 kd pro-PDF form) and anti-PDF antisera (˜17 kd mature PDF form).
# LNCaP cells = assay: Prostate epithelial cell differentiation markers (cytokeratin immunoblot), LNCaP; conditions: various concentrations of CMK, 72 hours, serum-free RPMI 1640
# Procedure: as §1, with “PSA. […]” for “PSA.”
# [3] = system: PSA expression in LNCaP cells; assay: DHT-stimulated PSA expression in LNCaP cells (anti-PSA immunoblot); conditions: various concentrations of CMK, 24 hours
# Procedure: as §1, with “PSA. […]” for “PSA.”
substance,measurement,setting,value
decanoyl-Arg-Val-Lys-Arg-chloromethylketone (Decanoyl-RVKR-CH2Cl) [CMK],PC activity (cleavage of boc-RVRR-amc),[1],inhibition of PCs
same,cellular PDF,[2]; LNCaP cell lysate,did not affect
same,PDF processing (mature PDF) in LNCaP-conditioned media,[2]; serum-starved,reduction of PDF processing in LNCaP-conditioned media in a dose-dependent manner
same,pro-PDF in LNCaP-conditioned media,[2]; serum-starved,concomitant increase in pro-PDF
same,"expression of cytokeratin 8, 18 and 19",LNCaP cells,down-regulated
same,expression of cytokeratin 14,LNCaP cells,upregulated in a dose-dependent manner
same,levels of endogenous PSA,[3]; in the absence of DHT,not affected
same,androgen-induced PSA expression,[3]; in the presence of DHT,inhibited
